Tests used:
male ICR mice [1] = test: Spatial working memory, modified Y-maze, scopolamine-induced amnesia; format: in vivo, mouse; details: for Percentage of unfamiliar arm exploration: n = 5
Protocol: (§1) The experimental protocols were submitted and approved by the Bioethics Committee of the Faculty of Medicine and Psychology, Autonomous University of Baja California University, Tijuana, México (Record No. 666/2021-2). To perform the in vivo cognitive test experiments, male ICR mice eight weeks of age were used. The animals were housed with access to water and food under a 12 h light and dark cycle, with controlled temperature and humidity.
(§2) To carry out the cognition experiments, we used the methods previously described in detail by Arunrungvichian K., et al., 2015, in which they produced pharmacological amnesia using scopolamine in a mouse model. […] All compounds were administered by intraperitoneal injection in a volume of 5 mL/kg. Saline solution was used for the vehicle group (SH).
We use the maze used in the spontaneous alternation tests except for the use of a partition to close one of three arms. Here, mice, throughout multiple arm entries, should tend to enter a less recently visited arm or an unfamiliar arm of the maze. The mice were injected with compound 1, SH, DZ, and scopolamine (1 h and 30 min) before starting experiments. Each mouse was placed at the end of one arm and allowed to move freely for 5 min to get familiar with the two open arms. All arms were opened after 30 min of resting to allow entering in all three arms. An entry was counted if mice accessed an arm at least 10 cm. The percentage of unfamiliar arm exploration was calculated as Equation (2):(2) Percentage of unfamiliar arm exploration=number of unfamiliar arm entry/number of all arms entry×100

male ICR mice [2] = test: Novel Object Recognition (NOR) test, scopolamine-induced amnesia; format: in vivo, mouse; details: for effect on episodic short-term memory (DI vs amnesic group): donepezil 1 mg/kg, oxazolone (1) 5, 10, 25 and 100 μmol/kg, i.p.; for Discrimination Index (DI): scopolamine-treated mice, n = 5, mean ± SE
Protocol: as §1, §2
We employed the Novel Object Recognition Test (NOR) to assess recognition memory, a valuable tool for evaluating cognitive impairment in rodents and testing the impact of new drugs on cognition. This test involves an open-field arena containing two distinct types of objects, each with unique colors and shapes for easy discrimination. The basis of this test lies in rodents’ natural inclination to spend more time exploring a new object compared to a familiar one, leading to the calculation of a Discrimination Index (DI).
The testing procedure unfolded as follows: On the first day, the mice were allowed to freely explore the open-field apparatus for 5 min to become accustomed to the environment. On the second day, oxazolone 1, DZ, and SH were administered 1 h prior, while SC was given 30 min before the acquisition trial. During this trial, the mice were introduced to the apparatus with two identical objects. After spending 10 min in their cages, one of the objects was replaced with a new one, and the mice were granted 5 min to explore these objects during the retention trial. We meticulously recorded the time the mice spent exploring each object, defined as when their noses approached within 3 cm or when they made contact with the objects. The DI was calculated as (TN – TF)/(TN + TF), with TN representing the exploration time of the new object and TF indicating the exploration time of the familiar object.

[3] = target: T1, human acetylcholinesterase (hAChE) (Homo sapiens, UniProt P22303); test: hAChE inhibitory screening (Ellman method); format: biochemical; details: n = 3
T1 construct: purchased Sigma Aldrich; host or cells: HEK 93 cells (so in the source)
T1 sequence (P22303 32-614): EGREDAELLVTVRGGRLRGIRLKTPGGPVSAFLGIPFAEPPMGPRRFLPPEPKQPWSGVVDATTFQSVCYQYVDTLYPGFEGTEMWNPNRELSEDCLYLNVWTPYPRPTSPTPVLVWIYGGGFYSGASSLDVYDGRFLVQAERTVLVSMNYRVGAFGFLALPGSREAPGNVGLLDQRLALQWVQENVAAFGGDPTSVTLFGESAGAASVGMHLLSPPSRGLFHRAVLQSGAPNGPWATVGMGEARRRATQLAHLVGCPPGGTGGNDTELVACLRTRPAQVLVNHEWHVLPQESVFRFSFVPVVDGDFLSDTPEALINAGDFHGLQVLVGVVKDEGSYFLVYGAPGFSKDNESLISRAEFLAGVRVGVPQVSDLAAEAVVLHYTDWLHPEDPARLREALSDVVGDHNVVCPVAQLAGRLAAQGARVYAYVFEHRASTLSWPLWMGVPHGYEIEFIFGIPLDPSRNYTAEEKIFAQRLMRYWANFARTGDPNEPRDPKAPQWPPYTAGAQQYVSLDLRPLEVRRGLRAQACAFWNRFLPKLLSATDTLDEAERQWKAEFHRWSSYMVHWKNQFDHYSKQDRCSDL
Protocol: (§3) Recombinant hAChE expressed in HEK 93 cells, a lyophilized powder (Sigma Aldrich, Mexico), was dissolved in TBSA/sodium azide 0.02% and then was stored in aliquots at −20 °C. Each aliquot was diluted as required in a solution of PBS 0.1M pH 7.4/BSA 0.01% on the day of the experiment.
The spectrophotometric method of Ellman was used to evaluate the inhibition of hAChE. The assay was carried out by double beam UV-Vis 6705 Janway spectrophotometer at room temperature, using optical polystyrene cuvettes of 1.0 cm path length (10 × 10 × 45 mm, 340–800 nm optical transparency). Each test compound was dissolved in ethanol. […] Aliquots of 970 μL of PBS 0.1 M pH 7.4/BSA 0.01% containing DTNB (300 μM) and 10 μL of hAChE (0.2 μM) were placed in the polystyrene cuvette. An amount of 10 μL of a stock solution to obtain a final concentration of 100 or 300 μM of the tested compound was added. In total, 10 μL of an aqueous solution of acetylthiocoline 10 mM was added to start the reaction. The absorbance of the sample by the generation of the yellow 5-nitro-2-tio-benzoic anion was recorded at 412 nm at room temperature after 1 min. As a control, an identical enzyme solution without the inhibitor was processed following the same protocol to determine 100% of enzyme activity. […] Each experiment was repeated at least in triplicate. The capacity of each compound to inhibit hAChE was expressed as percent inhibition calculated using Equation (1):(1) Inhibition(%)=Ac−Ai×100/Ac where Ac and Ai represent the change in the absorbance in the […], respectively.

[4] = target: T1, human acetylcholinesterase (hAChE); test: Kinetic determinations of reversible hAChE inhibition (Ellman assay); format: biochemical; details: for Ki: room temperature, 0.1 M PBS pH 7.4, n = 3, read-out: Inhibition Constant (Ki); for Parameter α: α of Vmax and Km referred to control AChE activity, mixed model inhibition; for decrease in inhibition potency compared to (1): from Ki values
Protocol: as §3
Reversible inhibition assays from all hAChE were measured using a spectrophotometric Ellman assay at room temperature in 0.1 M PBS pH 7.4, containing 0.01% BSA, containing DTNB 300 µM as a chromogen. The equilibrium dissociation constant (Ki) of the hAChE–oxazolone conjugate was determined using different substrate concentrations (s) ranging from 0.05 to 0.200 mM, and at least four different concentrations of the oxazolones (i) were applied at a given substrate concentration in order to obtain hAChE inhibition between 20% and 80% to establish the affinity for each hAChE–oxazolone conjugate combination. The enzyme activity (ν) was plotted versus the substrate concentration [S] analyzed by non-linear regression analysis (Michaelis–Menten plot); data were transformed into a double reciprocal Lineweaver–Burk plot. Plots 1/ν versus 1/[S] were generated by plotting the slope versus the oxazolone concentration and the ordinate versus the oxazolone concentration of the primary plot. The processing of experimental data to define the oxazolones affinity was performed by a linear regression analysis where the y-intercept determines the enzyme-inhibitor dissociation constants (Ki), while the x-intercept determines the enzyme-substrate dissociation constant (Ks). The equation was used assuming that the substrate, due to low substrate concentrations used in experiments, binds only to the catalytic site, while the inhibitor can bind to both sites, catalytic and peripheral. To determine the mechanism of inhibition, we used the dose-response curves fitted using the Mixed Model Inhibition by the constants Vmax and Km calculated from Michaelis–Menten kinetics that includes competitive, uncompetitive, and non-competitive inhibition as special cases. The GraphPad Prims 6.0 software, San Diego, CA, USA was used to calculate the kinetics. All data are shown as means of n = 3.

[5] = target: T1, human acetylcholinesterase (hAChE); test: Estimation of IC50 values on hAChE (Ellman, 96-microwell plates); format: biochemical; details: room temperature, 0.1 M PBS pH 7.4; n = 3
Protocol: as §3
The concentrations of test compounds that inhibited the hydrolysis of substrates by 50% (IC50) were determined by monitoring the effect of various concentrations of oxazolones in the assays on the inhibition values. To study the potency, the oxazolones with an inhibition greater than 50% were selected, taken from the screening test results at 300 μM. All the inhibition studies were performed at room temperature in 96-microwell plates using Multiskan FC 5111900 (Lab Systems, CA, USA). The DTNB was used for the measurement of hAChE activity. In total, 174 μL in 0.1 M PBS pH 7.4/0.01% BSA, containing 300 μM DTNB final concentration, 2 μL of test-compound solution, and 2 μL of hAChE solution (0.2 μM) were mixed. The reaction was then initiated by adding 2 μL acetylthiocholine (10 mM), and the plate was read immediately. The formation of yellow 2-nitro-5-tiobenzoico acid due to the reaction of DTNB with thiocholine monitored the enzymatic hydrolysis of acetylthiocholine. Measures were at a wavelength of 412 nm at room temperature after 1 min. The IC50 values were then calculated using the GraphPad Prism 6.0 software (San Diego, CA, USA). All data are shown as means of n = 3.

male ICR mice [6] = test: Y-maze spontaneous alternation test; format: in vivo, mouse; details: 1 h before, 8 min in Y-maze, n = 5, mean ± SE
Protocol: as §1, §2

| Structure (SMILES) | Mode of Inhibition [4] | Ki [4] [µM] | Parameter α [4] | IC50 [5] [µM] | also measured |
| --- | --- | --- | --- | --- | --- |
| COc1cc2c(cc1OC)C(=O)C(CC1CCN(Cc3ccccc3)CC1)C2 (centres unmarked) [Donepezil, donepezil, reference compound] |  |  |  |  | effect on cognitive decline induced by scopolamine (novel arm exploration) (male ICR mice [1]; 1 mg/kg i.p., p < 0.001 vs scopolamine group): notably reversed; effect on episodic short-term memory (DI vs amnesic group) (male ICR mice [2]): substantially improved episodic short-term memory |
| O=C1OC(/C=C/c2ccccc2)=NC/1=C\c1ccccc1 [Oxazolone 1, 4-((Z)-benzylidene)-2-((E)-styryl)oxazol-5(4H)-one] | Competitive | 2.08 ± 0.36 | 21.84 | 9.2 ± 2.3 | inhibition at 100 µM ([3]; 100 μM compound): 61.3%; locomotor activity, number of arm entries (male ICR mice [6]; 5 μmol/kg i.p.): 31.8 ± 2.1 entries; locomotor activity, number of arm entries (male ICR mice [6]; 50 μmol/kg i.p.): 34 ± 2.3 entries; Percentage of unfamiliar arm exploration (male ICR mice [1]; 25 μmol/kg i.p., scopolamine-treated mice, mean ± SE): 37.83 ± 0.7%; Percentage of unfamiliar arm exploration (male ICR mice [1]; 100 μmol/kg i.p., scopolamine-treated mice, mean ± SE): 48.30 ± 5.4%; Discrimination Index (DI) (male ICR mice [2]; 10 μmol/kg i.p.): 0.317 ± 0.051; Discrimination Index (DI) (male ICR mice [2]; 100 μmol/kg i.p.): 0.360 ± 0.056; effect on episodic short-term memory (DI vs amnesic group) (male ICR mice [2]): substantially improved episodic short-term memory |
| Cc1ccc(/C=C2N=C(/C=C/c3ccccc3)OC\2=O)cc1 [Oxazolone 2, 4-((Z)-4-methylbenzylidene)-2-((E)-styryl)oxazol-5(4H)-one] | Competitive | 108 ± 7.77 | 4.98 | 95.5 ± 1.47 |  |
| O=C1OC(/C=C/c2ccccc2)=NC/1=C\c1ccc(Cl)cc1 [Oxazolone 3, 4-((Z)-4-chlorobenzylidene)-2-((E)-styryl)oxazol-5(4H)-one] | Competitive | 98.4 ± 24 | >1000 | 89.3 ± 22.3 | Inhibition (%) of hAChE ([3]; 100 μM compound): inactive; Inhibition (%) of hAChE ([3]; 300 μM compound): moderate inhibitory activity |
| COc1ccc(/C=C2N=C(/C=C/c3ccccc3)OC\2=O)cc1 [Oxazolone 4, 4-((Z)-4-methoxybenzylidene)-2-((E)-styryl)oxazol-5(4H)-one] | Competitive | 157 ± 46 | 4.16 | 137 ± 34.2 | inhibition at 100 µM ([3]; 100 μM compound): 49% |
| CC(=O)Oc1cccc(/C=C2N=C(/C=C/c3ccccc3)OC\2=O)c1 [Oxazolone 5, 3-((Z)-(5-oxo-2-((E)-styryl)oxazol-4(5H)-ylidene)methyl)phenyl acetate] | Non-competitive | 183 ± 46 | 1 | 204 ± 39.7 |  |
| CC(=O)Oc1ccc(/C=C2N=C(/C=C/c3ccccc3)OC\2=O)cc1 [Oxazolone 6, 4-((Z)-(5-oxo-2-((E)-styryl)oxazol-4(5H)-ylidene)methyl)phenyl acetate] | uncompetitive | 198 ± 49.5 | 0.006 | 246 ± 51.2 | decrease in inhibition potency compared to (1) [4]: approximately 100 fold |
| CC(=O)Oc1cccc(/C=C2N=C(/C=C/c3ccccc3)OC\2=O)c1O [Oxazolone 7, 2-hydroxy-3-((Z)-(5-oxo-2-((E)-styryl)oxazol-4(5H)-ylidene)methyl)phenyl acetate] | Competitive | 67 ± 19 | 18.27 | 37.1 ± 1.61 | decrease in inhibition potency compared to (1) [4]: roughly 33 fold |
| CN1[C@@H]2C[C@@H](OC(=O)[C@H](CO)c3ccccc3)C[C@H]1[C@@H]1O[C@@H]12 [scopolamine, reference compound] |  |  |  |  | Percentage of unfamiliar arm exploration (male ICR mice [1]; scopolamine group, 1 mg/kg i.p. 30 min before): 28.58 ± 5% |
